± gives the expanded uncertainty stated by the source.
Assay: mn = molality of the nth substance listed, in mol/kg
Settings: 298.15 K, 85 kPa, Liquid, Alternating current cell with electrodes

CCCCCCCCCCCCn1cc[n+](C)c1.[Br-] [1-dodecyl-3-methylimidazolium bromide] + O
electrical conductivity (m1 = 0.00123): 0.0086 ± 0.0007 S/m
electrical conductivity (m1 = 0.00244): 0.0169 ± 0.0014 S/m
electrical conductivity (m1 = 0.00361): 0.0251 ± 0.0021 S/m
electrical conductivity (m1 = 0.00476): 0.0331 ± 0.0028 S/m
electrical conductivity (m1 = 0.00588): 0.0411 ± 0.0034 S/m
electrical conductivity (m1 = 0.00698): 0.0489 ± 0.0041 S/m
electrical conductivity (m1 = 0.00805): 0.0567 ± 0.0049 S/m
electrical conductivity (m1 = 0.00909): 0.0644 ± 0.0049 S/m
electrical conductivity (m1 = 0.01011): 0.0702 ± 0.0039 S/m
electrical conductivity (m1 = 0.01111): 0.0736 ± 0.0031 S/m
electrical conductivity (m1 = 0.01209): 0.0764 ± 0.003 S/m
electrical conductivity (m1 = 0.01304): 0.0788 ± 0.0032 S/m
electrical conductivity (m1 = 0.01398): 0.0814 ± 0.0033 S/m
electrical conductivity (m1 = 0.01489): 0.0836 ± 0.0032 S/m
electrical conductivity (m1 = 0.01579): 0.0856 ± 0.0034 S/m
electrical conductivity (m1 = 0.01667): 0.0877 ± 0.0037 S/m
electrical conductivity (m1 = 0.01753): 0.0898 ± 0.0038 S/m
electrical conductivity (m1 = 0.01837): 0.0918 ± 0.004 S/m
electrical conductivity (m1 = 0.01919): 0.0938 ± 0.0041 S/m
electrical conductivity (m1 = 0.02): 0.0957 ± 0.0043 S/m
electrical conductivity (m1 = 0.02079): 0.0977 ± 0.0047 S/m
electrical conductivity (m1 = 0.02157): 0.0997 ± 0.002 S/m

CCCCCCCCCCCC[N+](C)(C)C.[Br-] [dodecyltrimethylammonium bromide] + O
electrical conductivity (m1 = 0.00185): 0.0125 ± 0.001 S/m
electrical conductivity (m1 = 0.00366): 0.0246 ± 0.002 S/m
electrical conductivity (m1 = 0.00542): 0.0367 ± 0.0031 S/m
electrical conductivity (m1 = 0.00714): 0.0487 ± 0.0042 S/m
electrical conductivity (m1 = 0.00882): 0.0609 ± 0.0053 S/m
electrical conductivity (m1 = 0.01047): 0.0731 ± 0.0065 S/m
electrical conductivity (m1 = 0.01207): 0.0856 ± 0.0077 S/m
electrical conductivity (m1 = 0.01364): 0.0976 ± 0.0082 S/m
electrical conductivity (m1 = 0.01517): 0.108 ± 0.0076 S/m
electrical conductivity (m1 = 0.01667): 0.116 ± 0.0061 S/m
electrical conductivity (m1 = 0.01813): 0.121 ± 0.005 S/m
electrical conductivity (m1 = 0.01957): 0.125 ± 0.0049 S/m
electrical conductivity (m1 = 0.02097): 0.128 ± 0.005 S/m
electrical conductivity (m1 = 0.02234): 0.132 ± 0.0051 S/m
electrical conductivity (m1 = 0.02368): 0.135 ± 0.0054 S/m
electrical conductivity (m1 = 0.025): 0.138 ± 0.0056 S/m
electrical conductivity (m1 = 0.02629): 0.141 ± 0.006 S/m
electrical conductivity (m1 = 0.02755): 0.145 ± 0.0064 S/m
electrical conductivity (m1 = 0.02879): 0.148 ± 0.0066 S/m
electrical conductivity (m1 = 0.03): 0.151 ± 0.0068 S/m
electrical conductivity (m1 = 0.03119): 0.154 ± 0.0071 S/m
electrical conductivity (m1 = 0.03235): 0.157 ± 0.0073 S/m
electrical conductivity (m1 = 0.0335): 0.16 ± 0.0032 S/m

O [water] + CCCCCCCCCCCC[N+](C)(C)C.[Br-]
electrical conductivity (m2 = 0): 0.00021 ± 1e-05 S/m

O [water] + CCCCCCCCCCCCn1cc[n+](C)c1.[Br-]
electrical conductivity (m2 = 0): 0.00024 ± 1e-05 S/m
